# Measurements published in patent US12077503B2, “Substituted cyclic amides and their use as herbicides” (FMC CORPORATION, priority 2015, dated 2024).
# Assays:
# Assay type in all cases: in vivo
# Kochia (Kochia scoparia) [1] = assay: Test A preemergence; details: for Plant response rating, Kochia: 125 g ai/ha, preemergence, 0 to 100 scale (0 no effect, 100 complete control); for Kochia plant response rating (0 to 100 scale): Preemergence, 500 g ai/ha, 0 is no effect, 100 is complete control
# From the text: (§1) Seeds of plant species selected from barnyardgrass (Echinochloa crus-galli), Kochia (Kochia scoparia), ragweed (common ragweed, Ambrosia elatior), ryegrass, Italian (Italian ryegrass, Lolium multiflorum), crabgrass, large (Digitaria sanguinalis), giant foxtail (Setaria faberii), green foxtail (Setaria viridis), morningglory (Ipomoea spp.), pigweed (Amaranthus retroflexus), velvetleaf (Abutilon theophrasti), wheat (Triticum aestivum), and corn (Zea mays) were planted into a blend of loam soil and sand and treated preemergence with a directed soil spray using test chemicals formulated in anon-phytotoxic solvent mixture which included a surfactant.
# (§2) At the same time, plants selected from these crop and weed species and also blackgrass (Alopecurus myosuroides), and Galium (catchweed bedstraw, Galium aparine) were planted in pots containing the same blend of loam soil and sand and treated with postemergence applications of test chemicals formulated in the same manner. Plants ranged in height from 2 to 10 cm and were in the one- to two-leaf stage for the postemergence treatment. Treated plants and untreated controls were maintained in a greenhouse for approximately 10 d, after which time all treated plants were compared to untreated controls and visually evaluated for injury. Plant response ratings, summarized in Table A, are based on a 0 to 100 scale where 0 is no effect and 100 is complete control. A dash (-) response means no test result.
# [2] = test system: barnyardgrass (Echinochloa crus-galli); assay: Test A preemergence; details: for Plant response rating, Barnyardgrass: 125 g ai/ha, preemergence, 0 to 100 scale (0 no effect, 100 complete control); for Barnyardgrass plant response rating (0 to 100 scale): Preemergence, 500 g ai/ha, 0 is no effect, 100 is complete control
# From the text: as §1, §2
# [3] = test system: giant foxtail (Setaria faberii); assay: Test A preemergence; details: for Plant response rating, Foxtail, Giant: 125 g ai/ha, preemergence, 0 to 100 scale (0 no effect, 100 complete control); for Foxtail, Giant plant response rating (0 to 100 scale): Preemergence, 500 g ai/ha, 0 is no effect, 100 is complete control
# From the text: as §1, §2
# [4] = test system: pigweed (Amaranthus retroflexus); assay: Test A preemergence; details: for Plant response rating, Pigweed: 125 g ai/ha, preemergence, 0 to 100 scale (0 no effect, 100 complete control); for Pigweed plant response rating (0 to 100 scale): Preemergence, 500 g ai/ha, 0 is no effect, 100 is complete control
# From the text: as §1, §2
# [5] = test system: ragweed (common ragweed, Ambrosia elatior); assay: Test A preemergence; details: for Plant response rating, Ragweed: 125 g ai/ha, preemergence, 0 to 100 scale (0 no effect, 100 complete control)
# From the text: as §1, §2
# [6] = test system: ryegrass, Italian (Italian ryegrass, Lolium multiflorum); assay: Test A preemergence; details: for Plant response rating, Ryegrass, Italian: 125 g ai/ha, preemergence, 0 to 100 scale (0 no effect, 100 complete control); for Ryegrass, Italian plant response rating (0 to 100 scale): Preemergence, 500 g ai/ha, 0 is no effect, 100 is complete control
# From the text: as §1, §2
# [7] = test system: Galium (catchweed bedstraw, Galium aparine); assay: Test A postemergence; details: postemergence; for Galium plant response rating: 125 g ai/ha, visual injury rating on 0 to 100 scale (0 no effect, 100 complete control), approx. 10 d; for Plant response rating, Galium: 500 g ai/ha, 0 to 100 scale, 0 no effect, 100 complete control
# From the text: as §1, §2
# Kochia (Kochia scoparia) [8] = assay: Test A postemergence; details: postemergence; for Kochia plant response rating: 125 g ai/ha, visual injury rating on 0 to 100 scale (0 no effect, 100 complete control), approx. 10 d; for Plant response rating, Kochia: 500 g ai/ha, 0 to 100 scale, 0 no effect, 100 complete control
# From the text: as §1, §2
# [9] = test system: barnyardgrass (Echinochloa crus-galli); assay: Test A postemergence
# From the text: as §1, §2
# [10] = test system: blackgrass (Alopecurus myosuroides); assay: Test A postemergence
# From the text: as §1, §2
# corn (Zea mays) = assay: Test A postemergence; details: postemergence; for Corn plant response rating: 125 g ai/ha, visual injury rating on 0 to 100 scale (0 no effect, 100 complete control), approx. 10 d; for Plant response rating, Corn: 500 g ai/ha, 0 to 100 scale, 0 no effect, 100 complete control
# From the text: as §1, §2
# [11] = test system: giant foxtail (Setaria faberii); assay: Test A postemergence; details: postemergence; for Foxtail, Giant plant response rating: 125 g ai/ha, visual injury rating on 0 to 100 scale (0 no effect, 100 complete control), approx. 10 d; for Plant response rating, Foxtail, Giant: 500 g ai/ha, 0 to 100 scale, 0 no effect, 100 complete control
# From the text: as §1, §2
# [12] = test system: pigweed (Amaranthus retroflexus); assay: Test A postemergence; details: postemergence; for Pigweed plant response rating: 125 g ai/ha, visual injury rating on 0 to 100 scale (0 no effect, 100 complete control), approx. 10 d; for Plant response rating, Pigweed: 500 g ai/ha, 0 to 100 scale, 0 no effect, 100 complete control
# From the text: as §1, §2
# [13] = test system: ragweed (common ragweed, Ambrosia elatior); assay: Test A postemergence; details: postemergence; for Ragweed plant response rating: 125 g ai/ha, visual injury rating on 0 to 100 scale (0 no effect, 100 complete control), approx. 10 d; for Plant response rating, Ragweed: 500 g ai/ha, 0 to 100 scale, 0 no effect, 100 complete control
# From the text: as §1, §2
# [14] = test system: ryegrass, Italian (Italian ryegrass, Lolium multiflorum); assay: Test A postemergence; details: postemergence; for Ryegrass, Italian plant response rating: 125 g ai/ha, visual injury rating on 0 to 100 scale (0 no effect, 100 complete control), approx. 10 d; for Plant response rating, Ryegrass, Italian: 500 g ai/ha, 0 to 100 scale, 0 no effect, 100 complete control
# From the text: as §1, §2
# [15] = test system: wheat (Triticum aestivum); assay: Test A postemergence; details: postemergence; for Wheat plant response rating: 125 g ai/ha, visual injury rating on 0 to 100 scale (0 no effect, 100 complete control), approx. 10 d; for Plant response rating, Wheat: 500 g ai/ha, 0 to 100 scale, 0 no effect, 100 complete control
# From the text: as §1, §2
# [16] = test system: barnyardgrass (Echinochloa crus-galli); assay: Test B flooded paddy test; details: Flood, 0 to 100 scale where 0 is no effect and 100 is complete control, 13 to 15 d
# Summary of the method: (§3)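 2-leaf plants; pots flooded 3 cm over soil; cpd added to paddy water; depth held; greenhouse 13–15 d; visual rating vs controls, 0 = no effect, 100 = complete control.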
# [17] = test system: ducksalad (Heteranthera limosa); assay: Test B flooded paddy test; details: Flood, 0 to 100 scale where 0 is no effect and 100 is complete control, 13 to 15 d
# Summary of the method: as §3
# rice (Oryra sativa) = assay: Test B flooded paddy test; details: Flood, 0 to 100 scale where 0 is no effect and 100 is complete control, 13 to 15 d
# Summary of the method: as §3
# [18] = test system: sedge, umbrella (small-flower umbrella sedge, Cyperus difformis); assay: Test B flooded paddy test; details: Flood, 0 to 100 scale where 0 is no effect and 100 is complete control, 13 to 15 d
# Summary of the method: as §3
# [19] = 500 g ai/ha, postemergence, 0 to 100 scale, 0 no effect, 100 complete control
# [20] = Postemergence, 125 g ai/ha, visual injury, 0 to 100 scale (0 no effect, 100 complete control), approx. 10 d
SMILES,"Plant response rating, Kochia (Kochia (Kochia scoparia) [1])",Kochia plant response rating (0 to 100 scale) (Kochia (Kochia scoparia) [1]),"Plant response rating, Barnyardgrass [2]",Barnyardgrass plant response rating (0 to 100 scale) [2],"Plant response rating, Foxtail, Giant [3]","Foxtail, Giant plant response rating (0 to 100 scale) [3]","Plant response rating, Pigweed [4]",Pigweed plant response rating (0 to 100 scale) [4],"Plant response rating, Ragweed [5]","Plant response rating, Ryegrass, Italian [6]","Ryegrass, Italian plant response rating (0 to 100 scale) [6]",Galium plant response rating [7],"Plant response rating, Galium [7]",Kochia plant response rating (Kochia (Kochia scoparia) [8]),"Plant response rating, Kochia (Kochia (Kochia scoparia) [8])","Plant response rating, Barnyardgrass [9, 19]","Plant response rating, Barnyardgrass [9, 20]","Plant response rating, Blackgrass [10, 19]","Plant response rating, Blackgrass [10, 20]",Corn plant response rating (corn (Zea mays)),also measured
COc1cccc(C2CNC(=O)C2C(=O)Nc2cccc(F)c2F)c1 (racemic) [Compound 383],0,20,50,90,50,70,0,0,0,0,20,0,0,0,30,90,70,0,0,0,"Ragweed plant response rating (0 to 100 scale) ([5]; Preemergence, 500 g ai/ha, 0 is no effect, 100 is complete control): 0; Plant response rating, Corn (corn (Zea mays)): 0; Foxtail, Giant plant response rating [11]: 30; Plant response rating, Foxtail, Giant [11]: 50; Pigweed plant response rating [12]: 0; Plant response rating, Pigweed [12]: 0; Ragweed plant response rating [13]: 0; Plant response rating, Ragweed [13]: 20; Ryegrass, Italian plant response rating [14]: 20; Plant response rating, Ryegrass, Italian [14]: 30; Wheat plant response rating [15]: 0; Plant response rating, Wheat [15]: 0; Plant response rating, Barnyardgrass ([16]; 250 g ai/ha): 0; Plant response rating, Ducksalad ([17]; 250 g ai/ha): 30; Plant response rating, Rice (rice (Oryra sativa); 250 g ai/ha): 0; Plant response rating, Sedge, Umbrella ([18]; 250 g ai/ha): 0"
COc1c(F)ccc(NC(=O)C2C(=O)NCC2c2cccc(C(F)(F)F)c2)c1F (racemic) [Compound 386],0,0,80,80,80,90,0,0,0,30,50,50,60,0,0,80,70,70,50,40,"Plant response rating, Corn (corn (Zea mays)): 80; Foxtail, Giant plant response rating [11]: 70; Plant response rating, Foxtail, Giant [11]: 80; Pigweed plant response rating [12]: 0; Plant response rating, Pigweed [12]: 10; Ragweed plant response rating [13]: 0; Plant response rating, Ragweed [13]: 30; Ryegrass, Italian plant response rating [14]: 20; Plant response rating, Ryegrass, Italian [14]: 50; Wheat plant response rating [15]: 30; Plant response rating, Wheat [15]: 50; Plant response rating, Barnyardgrass ([16]; 500 g ai/ha): 60; Plant response rating, Ducksalad ([17]; 500 g ai/ha): 70; Plant response rating, Rice (rice (Oryra sativa); 500 g ai/ha): 15; Plant response rating, Sedge, Umbrella ([18]; 500 g ai/ha): 0"
